Data as given in patent US20090130273A1, “FREEZE DRIED SUCRALOSE” (TATE & LYLE TECHNOLOGY LIMITED, priority 2007, published 2009).

Tests used:
[1] = Thermogravimetric analysis, stability at high temperature; assay type: physicochemical; conditions: mass as a function of time at 90° C. in nitrogen
Protocol: Thermogravimetric analysis was performed on commercial, seeded and unseeded samples made as described above in order to assess stability of the products at high temperature. The results are shown in FIGS. 4, 5 and 6, respectively. In each case, the mass of a sample was followed as a function of time at 90° C. in nitrogen, recorded as percent of original mass remaining. The vertical lines represent the point of the mass curve representing the halfway point of mass loss, and thus may be used as a measure of how rapidly decomposition set in. […] This further bears out the fact, noted above in view of the moisture absorption results, that these samples represent three different forms of sucralose.

[2] = Moisture absorption as a function of relative humidity; assay type: physicochemical; conditions: for moisture absorption behaviour compared with the other samples: RH ramp 0 to 80 % and back down to 20 %
Protocol: Sucralose beads prepared from seeded and unseeded aqueous sucralose solutions using the liquid nitrogen technique described above were evaluated to determine degree of moisture absorption as a function of relative humidity (% RH). A sample of commercial sucralose needles (“neat” sucralose) was also evaluated in parallel, and the results for these runs are shown in Table 1. Each column represents a ramping up of % RH from zero to 80, followed by ramping back down to 20.

Structure (SMILES) | onset of decomposition (halfway point of mass loss) ([1]; listed as unseeded product) | Mass Increase (%) ([2]; 0 % RH, start of upward ramp) | Mass Increase (%) ([2]; 20 % RH, ramping back down) | Mass Increase (%) ([2]; 20 % RH, ramping up) | Mass Increase (%) ([2]; 30 % RH, ramping back down) | Mass Increase (%) ([2]; 30 % RH, ramping up) | Mass Increase (%) ([2]; 40 % RH, ramping back down) | Mass Increase (%) ([2]; 40 % RH, ramping up) | Mass Increase (%) ([2]; 50 % RH, ramping back down) | Mass Increase (%) ([2]; 50 % RH, ramping up) | Mass Increase (%) ([2]; 60 % RH, ramping back down) | Mass Increase (%) ([2]; 60 % RH, ramping up) | Mass Increase (%) ([2]; 70 % RH, ramping back down) | Mass Increase (%) ([2]; 70 % RH, ramping up) | Mass Increase (%) ([2]; 80 % RH, top of ramp) | moisture absorption behaviour compared with the other samples ([2]; listed as unseeded product) | onset of decomposition (halfway point of mass loss) ([1]; listed as commercial sample) | Mass Increase (%) ([2]; 80 % RH, top of ramp, listed as neat (commercial) product) | onset of decomposition (halfway point of mass loss) ([1]; listed as seeded product) | moisture absorption behaviour compared with the other samples ([2]; listed as seeded product)
OCC1O[C@@H](O[C@]2(CCl)O[C@@H](CCl)C(O)C2O)C(O)C(O)[C@H]1Cl (stereo in doubt) [Not Seeded, 4,1′,6′-trichloro-4,1′,6′-trideoxygalactosucrose] | intermediate between the two | 0.00 | 0.60 | 1.09 | 0.81 | 2.21 | 1.15 | 3.41 | 2.01 | 4.91 | 2.91 | 6.21 | 4.11 | 6.71 | 7.11 | significantly higher moisture absorption | – | – | – | –
OCC1O[C@@H](O[C@]2(CCl)O[C@@H](CCl)C(O)C2O)C(O)C(O)[C@H]1Cl (stereo partly drawn) [Neat, 4,1′,6′-trichloro-4,1′,6′-trideoxygalactosucrose, reference compound] | – | 0.00 | 0.00 | 0.00 | 0.00 | 0.00 | 0.00 | 0.00 | 0.00 | 0.00 | 0.00 | 0.00 | 0.00 | 0.00 | 0.10 | – | earliest to show significant decomposition | 0.1 | – | –
OCC1O[C@@H](O[C@]2(CCl)O[C@@H](CCl)C(O)C2O)C(O)C(O)[C@H]1Cl (stereo partly drawn) [Seeded, 4,1′,6′-trichloro-4,1′,6′-trideoxygalactosucrose] | – | 0 | 0.02 | 0.01 | 0.02 | 0.02 | 0.02 | 0.02 | 0.03 | 0.02 | 0.03 | 0.03 | 0.04 | 0.03 | 0.04 | – | – | – | took considerably longer | maximum value was less than half of that seen with the commercial product
